Usually pEC50 stands for the EC50 on a negative log10 scale, so that one unit is a factor of ten.

pEC50: −log10 of the molar value. Read-outs that look alike come from different tables or passages of the source.

For data set [1] the following is noted: amide bond, 13-membered ring.
A further data set has as its target T1, CFTR (Homo sapiens, UniProt P13569, DEL508-508).
T1 construct: endogenous in cells; host or cells: primary human bronchial epithelial cells from CF subjects (F508del/MF-HBE), differentiated at air-liquid interface
The data set is described as follows: HBE assay: Ussing chamber assay of CFTR-mediated short-circuit currents. The data set is classed as cell-based. To be noted: for pEC50: read-out: HBE EC50. The gist of the method:
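CFTR-mediated Isc (μA/cm²) equals the peak response to apical 20 μM forskolin minus the residual after a 20 μM each BPO/GlyH-101/CFTR inhibitor 172 cocktail, recorded in Ussing chambers at Vhold 0 mV, 37 °C, pH 7.4, with 30 μM apical amiloride. Cells were F508del/MF HBE cultures preincubated 18-24 h with corrector (concentration range or 10 μM) plus 1 μM ivacaftor in 20% human serum.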

[2] abbreviates: Table 10, read-out: HBE Max activity (%).
Setting [3] is: Table 11, read-out: HBE Max Activity (%).

T1 sequence (P13569 with tags, fused parts or gaps DEL508-508): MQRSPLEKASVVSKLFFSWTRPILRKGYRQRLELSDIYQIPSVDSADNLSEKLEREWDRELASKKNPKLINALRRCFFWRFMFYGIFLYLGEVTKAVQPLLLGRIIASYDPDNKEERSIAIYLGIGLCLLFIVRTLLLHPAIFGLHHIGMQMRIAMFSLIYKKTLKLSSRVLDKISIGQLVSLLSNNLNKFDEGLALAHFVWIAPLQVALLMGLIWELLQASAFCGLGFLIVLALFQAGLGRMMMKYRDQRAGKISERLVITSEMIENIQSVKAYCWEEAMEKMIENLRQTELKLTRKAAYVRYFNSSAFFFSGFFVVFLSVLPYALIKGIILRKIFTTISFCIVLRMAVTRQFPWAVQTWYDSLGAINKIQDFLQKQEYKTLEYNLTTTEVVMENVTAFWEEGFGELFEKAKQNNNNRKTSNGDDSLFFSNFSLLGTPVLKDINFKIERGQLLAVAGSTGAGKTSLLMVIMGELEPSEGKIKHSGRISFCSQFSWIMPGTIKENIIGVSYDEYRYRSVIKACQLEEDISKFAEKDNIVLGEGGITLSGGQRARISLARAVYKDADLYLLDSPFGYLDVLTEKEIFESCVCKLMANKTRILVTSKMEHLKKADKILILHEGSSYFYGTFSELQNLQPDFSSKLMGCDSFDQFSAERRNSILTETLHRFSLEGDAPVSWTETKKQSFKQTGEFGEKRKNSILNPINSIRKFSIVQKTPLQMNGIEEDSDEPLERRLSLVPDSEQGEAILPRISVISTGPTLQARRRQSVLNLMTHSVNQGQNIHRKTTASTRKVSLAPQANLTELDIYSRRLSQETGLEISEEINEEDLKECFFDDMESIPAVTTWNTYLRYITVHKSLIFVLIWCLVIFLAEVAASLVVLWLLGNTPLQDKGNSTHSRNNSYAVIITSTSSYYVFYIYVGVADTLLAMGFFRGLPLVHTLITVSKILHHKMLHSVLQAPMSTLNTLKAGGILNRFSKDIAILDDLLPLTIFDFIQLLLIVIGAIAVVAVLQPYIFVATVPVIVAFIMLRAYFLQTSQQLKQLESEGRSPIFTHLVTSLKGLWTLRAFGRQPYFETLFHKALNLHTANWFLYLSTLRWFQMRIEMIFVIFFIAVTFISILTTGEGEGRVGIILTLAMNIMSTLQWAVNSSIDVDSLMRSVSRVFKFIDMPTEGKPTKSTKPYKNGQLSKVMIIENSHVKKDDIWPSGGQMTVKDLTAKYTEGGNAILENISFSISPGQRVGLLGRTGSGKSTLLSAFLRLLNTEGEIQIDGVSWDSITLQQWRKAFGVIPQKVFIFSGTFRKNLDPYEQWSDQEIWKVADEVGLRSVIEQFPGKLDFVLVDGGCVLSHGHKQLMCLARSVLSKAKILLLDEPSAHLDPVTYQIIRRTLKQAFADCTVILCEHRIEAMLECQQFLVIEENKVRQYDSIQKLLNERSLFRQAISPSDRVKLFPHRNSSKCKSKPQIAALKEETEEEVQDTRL

With `Cc1cccc(C)c1-c1cc2nc(n1)NS(=N)(=O)c1cccc(c1)C(=O)N(Cc1ncc(N3CC(C)(C)C3)cn1)[C@H](CC(C)(C)C)CO2` (single isomer, unassigned; isomer a), in data set [1] (from Cc1cccc(C)c1-c1cc(OC[C@@H](CC(C)(C)C)NCc2ncc(N3CC(C)(C)C3)cn2)nc(NS(=N)(=O)c2cccc(C(=O)O)c2)n1, CDMT/NMM, DMF, 21.8 mM, 14.0 h), the ring closure, yield after HPLC amounted to 9%.

For `Cc1cccc(C)c1-c1cc2nc(n1)N=S(N)(=O)c1cccc(c1)C(=O)N(Cc1ncc(N3CC(C)(C)C3)cn1)[C@H](CC(C)(C)C)CO2` (single isomer, unassigned; isomer b), the ring closure, yield after HPLC in data set [1] (from 3-[[[4-[(2R)-2-[[5-(3,3-dimethylazetidin-1-yl)pyrimidin-2-yl]methylamino]-4,4-dimethyl-pentoxy]-6-(2,6-dimethylphenyl)pyrimidin-2-yl]amino]sulfonimidoyl]benzoic acid (hydrochloride salt) isomer B, CDMT/NMM, DMF, 18.4 mM) stood at 4%.

Turning to `Cc1cccc(C)c1-c1cc2nc(n1)NS(=O)(=O)c1cccc(c1)C(=O)N(Cc1ccc(N3CCOCC3)cn1)[C@H](CC1CC3(CCC3)C1)CO2` [Compound 3, (11R)-6-(2,6-Dimethylphenyl)-12-[(5-morpholino-2-pyridyl)methyl]-2,2-dioxo-11-(spiro[3.3]heptan-2-ylmethyl)-9-oxa-2λ^6-thia-3,5,12,19-tetrazatricyclo[12.3.1.14,8]nonadeca-1(18),4(19),5,7,14,16-hexaen-13-one], at CFTR (Table 10), the negative logarithm of the EC50 (pEC50) was more than 6.00. In addition, the Emax on CFTR (setting [2]) is more than 60%. This molecule also displayed a ring closure, yield after HPLC in data set [1] (from Cc1cccc(C)c1-c1cc(OC[C@@H](CC2CC3(CCC3)C2)NCc2ccc(N3CCOCC3)cn2)nc(NS(=O)(=O)c2cccc(C(=O)O)c2)n1, CDMT/NMM, DMF, 25.0 °C, 2.5 h, 2 steps) of 11%.

Take `Cc1cccc(C(C)C)c1-c1cc2nc(n1)NS(=O)(=O)c1cccc(c1)C(=O)N(Cc1ncc(N3CCOCC3)cn1)[C@H](CC(C)(C)C)CO2` [Compound 6, (11R)-11-(2,2-Dimethylpropyl)-6-[2-methyl-6-(propan-2-yl)phenyl]-12-{[5-(morpholin-4-yl)pyrimidin-2-yl]methyl}-9-oxa-2λ^6-thia-3,5,12,19-tetraazatricyclo[12.3.1.14,8]nonadeca-1(17),4(19),5,7,14(18),15-hexaene-2,2,13-trione]: the negative-log EC50 (pEC50) on CFTR (Table 11) is more than 6.00. On CFTR (setting [3]), the Emax is more than 60%. For the same molecule, the ring closure, yield after HPLC in data set [1] (from Cc1cccc(C(C)C)c1-c1cc(OC[C@@H](CC(C)(C)C)NCc2ncc(N3CCOCC3)cn2)nc(NS(=O)(=O)c2cccc(C(=O)O)c2)n1, CDMT/NMM, DMF, 54.0 mM, 25.0 °C, 60.0 h, 2 steps) was 21%.

`Cc1cccc(OCc2ccccc2)c1-c1cc2nc(n1)NS(=O)(=O)c1cccc(c1)C(=O)N(Cc1ccc(N3CCOCC3)cn1)[C@H](CC(C)(C)C)CO2` [Compound 7, (11R)-6-(2-Benzyloxy-6-methyl-phenyl)-11-(2,2-dimethylpropyl)-12-[(5-morpholino-2-pyridyl)methyl]-2,2-dioxo-9-oxa-2λ^6-thia-3,5,12,19-tetrazatricyclo[12.3.1.14,8]nonadeca-1(18),4(19),5,7,14,16-hexaen-13-one]: the activation at 10 µM at CFTR (Table 11, at 10 μM, read-out: HBE Activity at 10 μM (%)) is more than 60%. Also, the pEC50 at CFTR (Table 11) is more than 6.00. Further, the Emax at CFTR (setting [3]) was more than 60%. This molecule also registered a ring closure, yield after HPLC in data set [1] (from Cc1cccc(OCc2ccccc2)c1-c1cc(OC[C@@H](CC(C)(C)C)NCc2ccc(N3CCOCC3)cn2)nc(NS(=O)(=O)c2cccc(C(=O)O)c2)n1, HATU/TBTU/DMTMM/DIEA, DCM, 3.76 mM, 25.0 °C, 1.0 h) of 22%.

Turning to `Cc1cccc(C)c1-c1cc2nc(n1)NS(=O)(=O)c1cccc(c1)C(=O)N(Cc1ccc(OC3CCCC3)cn1)[C@H](CC(C)(C)C)CO2` [Compound 49, (11R)-12-[[5-(Cyclopentoxy)-2-pyridyl]methyl]-6-(2,6-dimethylphenyl)-11-(2,2-dimethylpropyl)-2,2-dioxo-9-oxa-2λ^6-thia-3,5,12,19-tetrazatricyclo[12.3.1.14,8]nonadeca-1(18),4(19),5,7,14,16-hexaen-13-one], the pEC50 at CFTR (Table 10) is 5.52 to 6.00. Moreover, the Emax at CFTR (setting [2]) was more than 60%. The ring closure, yield after HPLC in data set [1] (from 3-[[4-[(2R)-2-[[5-(cyclopentoxy)-2-pyridyl]methylamino]-4,4-dimethyl-pentoxy]-6-(2,6-dimethylphenyl)pyrimidin-2-yl]sulfamoyl]benzoic acid (Dihydrochloride salt), HATU/DIEA, DMF, 28.0 mM, 25.0 °C) was 49%.

On to `Cc1cc(C)nc(CN2C(=O)c3cccc(c3)S(=O)(=O)Nc3nc(cc(-c4c(C)cccc4C)n3)OC[C@H]2CC(C)(C)C)c1` [Compound 55, (11R)-6-(2,6-Dimethylphenyl)-11-(2,2-dimethylpropyl)-12-[(4,6-dimethylpyridin-2-yl)methyl]-9-oxa-2λ^6-thia-3,5,12,19-tetraazatricyclo[12.3.1.14,8]nonadeca-1(18),4,6,8(19),14,16-hexaene-2,2,13-trione], for which the pEC50 on CFTR (Table 11) is more than 6.00. Moreover, the Emax at CFTR (setting [3]) is more than 60%. Also, the ring closure, yield after HPLC in data set [1] (from 3-[[4-(2,6-dimethylphenyl)-6-[(2R)-2-[(4,6-dimethyl-2-pyridyl)methylamino]-4,4-dimethyl-pentoxy]pyrimidin-2-yl]sulfamoyl]benzoic acid (Dihydrochloride salt), CDMT/NMM, DMF, 42.2 mM, 25.0 °C) came to 44%.

On to `Cc1cccc(C)c1-c1cc2nc(n1)NS(=O)(=O)c1cccc(c1)C(=O)N(Cc1ncc(N3CCOCC3)cc1N1CCOCC1)[C@H](CC(C)(C)C)CO2` [Compound 56, (11R)-6-(2,6-Dimethylphenyl)-11-(2,2-dimethylpropyl)-12-[(3,5-dimorpholino-2-pyridyl)methyl]-2,2-dioxo-9-oxa-2λ^6-thia-3,5,12,19-tetrazatricyclo[12.3.1.14,8]nonadeca-1(18),4(19),5,7,14,16-hexaen-13-one], for which the negative-log EC50 (pEC50) at CFTR (Table 10) is more than 6.00. Further, the Emax at CFTR (setting [2]) was more than 60%. The ring closure, yield after HPLC in data set [1] (from Cc1cccc(C)c1-c1cc(OC[C@@H](CC(C)(C)C)NCc2ncc(N3CCOCC3)cc2N2CCOCC2)nc(NS(=O)(=O)c2cccc(C(=O)O)c2)n1, CDMT/NMM, DMF, 25.0 °C, 2.5 h, 2 steps) came out at 22%.

In the case of `Cc1cc(N2CCOCC2)cnc1CN1C(=O)c2cccc(c2)S(=O)(=O)Nc2nc(cc(-c3c(C)cccc3C)n2)OC[C@H]1CC(C)(C)C` [Compound 57, (11R)-6-(2,6-Dimethylphenyl)-11-(2,2-dimethylpropyl)-12-[(3-methyl-5-morpholino-2-pyridyl)methyl]-2,2-dioxo-9-oxa-2λ^6-thia-3,5,12,19-tetrazatricyclo[12.3.1.14,8]nonadeca-1(18),4(19),5,7,14,16-hexaen-13-one], the pEC50 on CFTR (Table 10) is more than 6.00. Also, the Emax at CFTR (setting [2]) is more than 60%. The molecule also had a ring closure, yield after HPLC in data set [1] (from Cc1cc(N2CCOCC2)cnc1CN[C@@H](COc1cc(-c2c(C)cccc2C)nc(NS(=O)(=O)c2cccc(C(=O)O)c2)n1)CC(C)(C)C, CDMT/NMM, DMF, 25.0 °C, 3.5 h, 2 steps) of 19%.

As for `Cc1cccc(C)c1-c1cc2nc(n1)NS(=O)(=O)c1cccc(c1)C(=O)N(Cc1ccc3ccccc3n1)[C@H](CC(C)(C)C)CO2` [Compound 58, (11R)-6-(2,6-Dimethylphenyl)-11-(2,2-dimethylpropyl)-2,2-dioxo-12-(2-quinolylmethyl)-9-oxa-2λ^6-thia-3,5,12,19-tetrazatricyclo[12.3.1.14,8]nonadeca-1(18),4(19),5,7,14,16-hexaen-13-one], the pEC50 on CFTR (Table 10) was more than 6.00. Further, the Emax at CFTR (setting [2]) is more than 60%. Besides, the ring closure, yield after HPLC in data set [1] (from 3-[[4-(2,6-dimethylphenyl)-6-[(2R)-4,4-dimethyl-2-(2-quinolylmethylamino)pentoxy]pyrimidin-2-yl]sulfamoyl]benzoic acid (Dihydrochloride salt), HATU/DIEA, DMF, 27.5 mM, 25.0 °C) is 73%.

Take `Cc1cccc(C)c1-c1cc2nc(n1)NS(=O)(=O)c1cccc(c1)C(=O)N(Cc1cccn(C)c1=O)[C@H](CC(C)(C)C)CO2` [Compound 59, (11R)-6-(2,6-Dimethylphenyl)-11-(2,2-dimethylpropyl)-12-[(1-methyl-2-oxo-3-pyridyl)methyl]-2,2-dioxo-9-oxa-2λ^6-thia-3,5,12,19-tetrazatricyclo[12.3.1.14,8]nonadeca-1(18),4(19),5,7,14,16-hexaen-13-one]: on CFTR (Table 11), the pEC50 is more than 6.00. At CFTR (setting [3]), the Emax is more than 60%. This molecule also registered a ring closure, yield after HPLC in data set [1] (from Cc1cccc(C)c1-c1cc(OC[C@@H](CC(C)(C)C)NCc2cccn(C)c2=O)nc(NS(=O)(=O)c2cccc(C(=O)O)c2)n1, HATU/DIEA, DMF, 28.1 mM, 25.0 °C, 2.0 h) of 54%.

Regarding `Cc1cccc(C)c1-c1cc2nc(n1)NS(=O)(=O)c1cccc(c1)C(=O)N(Cc1ccc(N3CCOCC3)nn1)[C@H](CC(C)(C)C)CO2` [Compound 111, (11R)-6-(2,6-Dimethylphenyl)-11-(2,2-dimethylpropyl)-12-[(6-morpholinopyridazin-3-yl)methyl]-2,2-dioxo-9-oxa-2λ^6-thia-3,5,12,19-tetrazatricyclo[12.3.1.14,8]nonadeca-1(18),4(19),5,7,14,16-hexaen-13-one], the pEC50 at CFTR (Table 10) was more than 6.00. For the same molecule, the Emax at CFTR (setting [2]) is more than 60%. For the same molecule, the ring closure, yield after HPLC in data set [1] (from Cc1cccc(C)c1-c1cc(OC[C@@H](CC(C)(C)C)NCc2ccc(N3CCOCC3)nn2)nc(NS(=O)(=O)c2cccc(C(=O)O)c2)n1, CDMT/NMM, DMF, 25.0 °C, 3.0 h, 2 steps) came out at 10%.

Consider `COCCN(C)c1cnc(CN2C(=O)c3cccc(c3)S(=O)(=O)Nc3nc(cc(-c4c(C)cccc4C)n3)OC[C@H]2CC(C)(C)C)nc1` [Compound 114, (11R)-6-(2,6-Dimethylphenyl)-11-(2,2-dimethylpropyl)-12-[[5-[2-methoxyethyl(methyl)amino]pyrimidin-2-yl]methyl]-2,2-dioxo-9-oxa-2λ^6-thia-3,5,12,19-tetrazatricyclo[12.3.1.14,8]nonadeca-1(18),4(19),5,7,14,16-hexaen-13-one], for which the negative-log EC50 (pEC50) on CFTR (Table 10) is more than 6.00. Also, on CFTR (setting [2]), the Emax was more than 60%. Also, the ring closure, yield after HPLC in data set [1] (from 3-[[4-(2,6-dimethylphenyl)-6-[(2R)-2-[[5-[2-methoxyethyl(methyl)amino]pyrimidin-2-yl]methylamino]-4,4-dimethyl-pentoxy]pyrimidin-2-yl]sulfamoyl]benzoic acid (Dihydrochloride salt), HATU/DIEA, DMF, 10.5 mM, 25.0 °C) amounted to 53%.

Values taken from US20240150377A1, “MODULATORS OF CYSTIC FIBROSIS TRANSMEMBRANE CONDUCTANCE REGULATOR” (VERTEX PHARMACEUTICALS INCORPORATED, priority 2020, published 2024).
